# Data as given in patent US20250304537A1 (Repare Therapeutics Inc., priority 2022, published 2025).
# System: PKMYT1 (CDK1 pThr14) in FUOV1 cells
# Assay: PKMYT1 cell-based activity assay, CDK1 pThr14 AlphaLISA in FUOV1 cells
# Settings: 2 h, 2 h compound incubation, read-out: FUOV-1 CDK1 pThr14 IC50
# Procedure: To determine compound IC50 (PKMYT1 cell-based activity assay, CDK1 pThr14 AlphaLISA), FUOV1 cells were plated into a 96-well TC-treated culture plate at 50000 cells/well in a final volume of 100 μL of media. The plates were then allowed to equilibrate in a biological safety cabinet for 30 minutes before being placed in a humidified incubator at 37 C and 5% CO2 overnight. The next day, 2 μL of PKMYT1 inhibitors or DMSO were diluted in 400 μL of warmed culture media in a 96-well block using a Biomek FX liquid handler. Compounds were mixed in media and then 25 μL was dispensed into each well of the 96-well cell plate. Plates were centrifuged at 300 g for 10 seconds and then placed in the incubator for 2 hours. After the 2-hour incubation with compound, media was removed via aspiration using a multichannel pipette. 30 μL of 1× AlphaLISA lysis buffer (Perkin Elmer) supplemented with protease and phosphatase inhibitors as well as 1 mM PMSF, was added to each well. Plates were rotated at 500 g for 20 minutes to facilitate lysis. Plates were then sealed with aluminum foil and frozen at −80° C. for at least 1 hour. Lysates were thawed at 37° C. for 10 minutes, then 10 μL of each lysate was transferred in duplicate to a white 384-well assay plate. Antibody mixture was prepared in 1× AlphaLISA assay buffer (Perkin Elmer) containing antibodies (5 nM final concentration for rabbit pThr14-CDK1 from Abcam #ab58509 and mouse total CDK1 from ThermoFisher Scientific #33-1800). 5 μL of antibody mixture was added to each well of the assay plate. The assay plate was sealed and stored at 4° C. overnight. The next day, AlphaLISA bead mixture (Perkin Elmer) was prepared in 1× AlphaLISA assay buffer. Anti-rabbit IgG Acceptor (Perkin Elmer #AL104C) and anti-mouse IgG Donor beads (Perkin Elmer #AS104D) were prepared to a concentration of 80 μg/ml in assay buffer. 5 μL of bead mixture was added to each well of the assay plate (20 μg/ml final concentration for each bead). The plate was protected from light and incubated for 2 hours at room temperature. After a 2-hour incubation with beads, the plate was read using the Perkin Elmer EnVision Multimode plate reader with excitation at 680 nm and emission at 615 nm.
row,SMILES,IC50 [nM]
1,Cc1ccc2[nH]ncc2c1-c1nc(-c2cccnc2Nc2cccc(S(N)(=O)=O)c2)nc(C(N)=O)c1N [Compound 631],96
2,Cc1ccc(F)c(Nc2ncccc2-c2nc(C(N)=O)c(N)c(-c3c(C)c(F)cc4[nH]ncc34)n2)n1 [Compound 749],6
3,"Cc1ccc2[nH]ncc2c1-c1nc(-c2ccc(F)cc2Nc2cccc(C#N)c2)nc(C(N)=O)c1N [Compound 580, 5-amino-2-(2-((3-cyanophenyl)amino)-4-fluorophenyl)-6-(5-methyl-1H-indazol-4-yl)pyrimidine-4-carboxamide]",44
4,Cc1ccc2[nH]ncc2c1-c1nc(-c2ccc(Cl)nc2Nc2ncccn2)nc(C(N)=O)c1N [Compound 759],33
5,Cc1ccc2[nH]ncc2c1-c1nc(-c2ccc(F)cc2Nc2ccccc2F)nc(C(N)=O)c1N [Compound 589],111
6,Cc1ccc2[nH]ncc2c1-c1nc(-c2cccnc2Nc2cncnc2C)nc(C(N)=O)c1N [Compound 717],216
7,Cc1ccc2[nH]ncc2c1-c1nc(-c2cccnc2NCC(C)(C)O)nc(C(N)=O)c1N [Compound 682],83
8,Cc1ccc2[nH]ncc2c1-c1nc(-c2ccc(F)cc2Nc2cncc(C#N)c2)nc(C(N)=O)c1N [Compound 673],1710
9,COc1cncc(Nc2cc(F)ccc2-c2nc(C(N)=O)c(N)c(-c3c(C)ccc4[nH]ncc34)n2)n1 [Compound 696],69
10,Cc1ccc2[nH]ncc2c1-c1nc(-c2cccnc2Nc2cccc(F)n2)nc(C(N)=O)c1N [Compound 659],185
11,Cc1ccc2[nH]ncc2c1-c1nc(-c2cccnc2N[C@H]2CCOC[C@@H]2F)nc(C(N)=O)c1N [Compound 648],51
12,C[C@]1(O)C[C@@H](Nc2nc(Cl)ccc2-c2nc(C(N)=O)c(N)c(-c3c(Cl)ccc4[nH]ncc34)n2)C1 [Compound 790],271
13,Cc1ccc2[nH]ncc2c1-c1nc(-c2cccnc2NC2CCSCC2)nc(C(N)=O)c1N [Compound 597],49
14,Cc1ccc2[nH]ncc2c1-c1nc(-c2cccnc2Nc2ncccc2CC#N)nc(C(N)=O)c1N [Compound 741],155
15,Cc1ccc2[nH]ncc2c1-c1nc(-c2ccc(F)cc2Nc2cccc(F)c2)nc(C(N)=O)c1N [Compound 663],359
16,Cc1ccc2[nH]ncc2c1-c1nc(-c2cccnc2NC2CCOC(C)(C)C2)nc(C(N)=O)c1N (stereo not drawn) [Compound 592],603
17,Cc1ccc2[nH]ncc2c1-c1nc(-c2ccc(Cl)nc2Nc2ncccc2F)nc(C(N)=O)c1N [Compound 781],5
18,Cc1ccc2[nH]ncc2c1-c1nc(-c2ccccc2Nc2ncc(F)cn2)nc(C(N)=O)c1N [Compound 494],144
19,Cc1ccc2[nH]ncc2c1-c1nc(-c2cccnc2NC[C@@H]2CCO2)nc(C(N)=O)c1N [Compound 650],179
20,Cc1ccc2[nH]ncc2c1-c1cc2c(oc3ccc(OCC(F)(F)F)nc32)c(C(N)=O)c1N [Compound 560],7040
21,Cc1ccc2[nH]ncc2c1-c1nc(-c2cccnc2NCC2COCCO2)nc(C(N)=O)c1N (stereo not drawn) [Compound 642],472
22,Cc1cnc(C)c(Nc2cc(C#N)ccc2-c2nc(C(N)=O)c(N)c(-c3c(C)ccc4[nH]ncc34)n2)n1 [Compound 750],73
23,Cc1ccc2[nH]ncc2c1-c1cc2c(oc3ccc(N[C@H]4CCOC4)nc32)c(C(N)=O)c1N [Compound 668],94
24,Cc1ccc2[nH]ncc2c1-c1nc(-c2ccc(C(F)(F)F)nc2Nc2ncccn2)nc(C(N)=O)c1N [Compound 760],201

# More lines, now with the values ahead:
row,IC50 [nM],SMILES
1,101,Cc1ccc2[nH]ncc2c1-c1nc(-c2cc(F)ccc2Nc2ccnn2C)nc(C(N)=O)c1N [Compound 522]
2,40,Cc1ccc2[nH]ncc2c1-c1nc(-c2cc(F)cnc2N[C@H]2C[C@](C)(O)C2)nc(C(N)=O)c1N [Compound 748]
3,25,Cc1ccc2[nH]ncc2c1-c1nc(-c2ccc(F)cc2Nc2ncccn2)nc(C(N)=O)c1N [Compound 511]
4,10,Cc1ccc2[nH]ncc2c1-c1nc(-c2cc(F)cnc2NC2CCOCC2)nc(C(N)=O)c1N [Compound 686]
5,51,Cc1ccc2[nH]ncc2c1-c1nc(-c2cc(F)ccc2Nc2cnccn2)nc(C(N)=O)c1N [Compound 490]
6,31,Cc1ccc2[nH]ncc2c1-c1nc(-c2cc(F)cnc2NC2CC(F)(F)C2)nc(C(N)=O)c1N [Compound 678]
7,681,Cc1ccc2[nH]ncc2c1-c1nc(-c2cc(F)ccc2NS(=O)(=O)C(F)F)nc(C(N)=O)c1N [Compound 493]
8,283,Cc1ccc2[nH]ncc2c1-c1nc(-c2cc(F)ccc2NS(=O)(=O)C2CCC2)nc(C(N)=O)c1N [Compound 571]
9,11,Cc1ccc2[nH]ncc2c1-c1nc(-c2cccnc2NC2CCCC2)nc(C(N)=O)c1N [Compound 681]
10,41,Cc1ccc2[nH]ncc2c1-c1nc(-c2ccc(F)cc2Nc2cncnc2C)nc(C(N)=O)c1N [Compound 695]
11,66,Cc1ccc2[nH]ncc2c1-c1nc(-c2cc(F)cnc2NC2COC2)nc(C(N)=O)c1N [Compound 712]
12,33,Cc1ccc2[nH]ncc2c1-c1nc(-c2cc(F)cnc2NCC2(C#N)CC2)nc(C(N)=O)c1N [Compound 705]
13,195,Cc1ccc2[nH]ncc2c1-c1nc(-c2cc(F)cnc2NCC2(O)CC2)nc(C(N)=O)c1N [Compound 692]
14,172,Cc1cnc(Nc2cc(F)ccc2-c2nc(C(N)=O)c(N)c(-c3c(C)ccc4[nH]ncc34)n2)s1 [Compound 587]
15,14,Cc1ccc2[nH]ncc2c1-c1nc(-c2cc(F)cnc2NC2CC2)nc(C(N)=O)c1N [Compound 680]
16,918,Cc1ccc2[nH]ncc2c1-c1nc(-c2cc(F)ccc2NS(=O)(=O)C2CCCC2)nc(C(N)=O)c1N [Compound 531]
17,22,Cc1ccc2[nH]ncc2c1-c1nc(-c2cc(F)cnc2N[C@H]2CC[C@@](C)(O)CC2)nc(C(N)=O)c1N [Compound 723]

# Same assay, conditions: 2 h, 2 h incubation, read-out: FUOV-1 CDK1 pThr14 IC50
row,IC50 [nM],SMILES
1,39,Cc1ccc2[nH]ncc2c1-c1cc(-c2ccnc(OCc3nccn3C)n2)nc(C(N)=O)c1N [Compound 301]
2,1150,COc1cc(-c2nc(C(N)=O)c(N)c(-c3c(C)ccc4[nH]ncc34)n2)ccn1 [Compound 135]

# Same assay, conditions: 2 h, 2 hours with compound, read-out: FUOV-1 CDK1 pThr14 IC50
row,SMILES,IC50 [nM]
1,Cc1ccc2[nH]ncc2c1-c1nc(-c2ccc(F)nc2Nc2nc(C(F)F)ccc2F)nc(C(N)=O)c1N [Compound 947],4
2,NC(=O)c1nc(-c2ccc(F)nc2Nc2ncccn2)nc(-c2c(Cl)ccc3[nH]ncc23)c1N [Compound 923],68
3,[2H]C([2H])([2H])c1ccc2[nH]ncc2c1-c1nc(-c2ccc(Cl)nc2Nc2ncccn2)nc(C(N)=O)c1N [Compound 946],51
4,Cc1ccc(F)c(Nc2ncccc2-c2nc(C(N)=O)c(N)c(-c3c(Cl)ccc4[nH]ncc34)n2)n1 [Compound 798],5
5,"Cc1ccc(F)c(Nc2ncccc2-c2cc(C(N)=O)c(N)c(-c3c(C)ccc4[nH]ncc34)n2)n1 [Compound 827, 5-amino-2′-((3-fluoro-6-methylpyridin-2-yl)amino)-6-(5-methyl-1H-indazol-4-yl)-[2,3′-bipyridine]-4-carboxamide]",12
6,Cc1ccc(-c2nc(C(N)=O)c(N)c(-c3c(C)ccc4[nH]ncc34)n2)c(Nc2ncccc2F)n1 [Compound 911],1
7,Cc1ccc2[nH]ncc2c1-c1nc(-c2ccc(F)nc2Nc2nc(F)ccc2F)nc(C(N)=O)c1N [Compound 921],4
8,Cc1c(F)cc2[nH]ncc2c1-c1nc(-c2cccnc2NC2CC2)nc(C(N)=O)c1N [Compound 848],78
9,Cc1ccc2[nH]ncc2c1-c1nc(-c2ccc(Cl)nc2Nc2cccnn2)nc(C(N)=O)c1N [Compound 832],217
10,Cc1cc(F)c2[nH]ncc2c1-c1nc(-c2ccc(C(F)F)nc2Nc2ncccn2)nc(C(N)=O)c1N [Compound 907],214
11,[2H]C([2H])([2H])c1ccc2[nH]ncc2c1-c1nc(-c2ccc(C(F)F)nc2Nc2ncccc2F)nc(C(N)=O)c1N [Compound 959],8

# Now from value to molecule:
row,IC50 [nM],SMILES
1,38,Cc1ccc2[nH]ncc2c1-c1nc(-c2cc(F)ncc2NC2CC(F)(F)C2)nc(C(N)=O)c1N [Compound 844]
2,55,Cc1ccc2[nH]ncc2c1-c1nc(-c2cc(F)cnc2NC2CCN(C)CC2)nc(C(N)=O)c1N [Compound 838]
3,30,"Cc1ccc2[nH]ncc2c1-c1nc(-c2ccc(F)cc2NC2CS(=O)(=O)C2)nc(C(N)=O)c1N [Compound 811, 5-amino-2-(2-((1,1-dioxidothietan-3-yl)amino)-4-fluorophenyl)-6-(5-methyl-1H-indazol-4-yl)pyrimidine-4-carboxamide]"
